According to patent US11981918B2, “Differentiation technique to generate dopaminergic neurons from induced pluripotent stem cells” (CEDARS-SINAI MEDICAL CENTER, priority 2018, dated 2024):
Entries after “also recorded” stand apart in the source; their conditions may differ. Where a SMILES comes first, the peptide text is derived from it. The star is where a group is joined. Cbz = O=C(OCc1ccccc1)*

Key:
neurons in Brain-Chip = assay type: cell-based, human
α-Synuclein [1] = conditions: cited from earlier work
α-Synuclein [2] = assay: α-Synuclein protein in iPSC-derived DaNs treated with lysosomal agonists (western blot); assay type: cell-based, human; conditions: for amount of α-Synuclein protein: DaNs from control lines; for amount of α-Synuclein protein / synuclein levels: treated for 3 days starting at day 27; for synuclein levels: EOSPD DaNs; for α-Synuclein levels: both control and PD DaNs, all treated lines
From the text: FIG. 5: Treatment with lysosomal agonists and Elevated p-PKCa in PD lines. […] Baseline levels of p-PKCa in d30 DaNs (b). Day 30 DaNs treated with PEP from multiple PD and control lines(c). Timecourse of PEP treatment and synuclein levels (d) Timecourse of PEP treatment SNCA (e) and TH (f) gene expression.
To test if the Inventors could reduce synuclein levels in our EOSPD DANs through activation of lysosomal specific pathways, the Inventors selected 3 lysosomal agonists. […] Starting at day 27, DaNs were treated for 3 days with the above lysosomal agonists.

LAMP1 = LAMP1 protein in DaNs after PEP treatment; assay type: cell-based, human; conditions: PD cells
cleaved caspase 3 (CC3) = assay: Cleaved caspase 3 in DaNs after PEP treatment; assay type: cell-based, human; conditions: DaNs on drug treatment, most easily observed in PD cells; listed as PEP
From the text: (§1) The elevated phosphorylation of PKCa was absent in the undifferentiated iPSCs and no clear pattern was evident in peripheral blood from the individual patients indicating specificity to the differentiated DaNs. […].
(§2) It is likely that the toxicity of PEP is more specific to highly proliferative cells whereas our differentiated neurons are largely post mitotoic.

[3] = tested on: various cancer cell lines and primary acute myeloid leukaemia (AML) cells; conditions: cited from earlier work
TH [4] = assay: TH gene expression timecourse of PEP treatment in DaNs; assay type: cell-based, human; conditions: roughly 8 hours after initial exposure
Method: (§3) FIG. 5: Treatment with lysosomal agonists and Elevated p-PKCa in PD lines. Western blot and relative band quantifications of d30 DaNs treated with indicated compounds for 72 hours (a). Baseline levels of p-PKCa in d30 DaNs (b). Day 30 DaNs treated with PEP from multiple PD and control lines(c). Timecourse of PEP treatment and synuclein levels (d) Timecourse of PEP treatment SNCA (e) and TH (f) gene expression. Confirmation of elevated synuclein and p-PKCa in addition control and PD lines (g)
as §1

[5] = tested on: leukemic cell lines and primary AML cells; conditions: by activating PKCδ and sustained activation of ERK1/2; cited from earlier work
p-PKCa = assay: Phosphorylated PKC alpha in iPSC-derived DaNs after PEP005 treatment (western blot); assay type: cell-based, human
synuclein = assay: In vivo synuclein in striatum after injection of PEP into the ventricles of WT mice; parameters: species or system mouse; conditions: WT mice, 0.3, 3 and 30 μM injected into the ventricles, 1 and 5 days post injection
TH [6] = assay: In vivo TH in striatum after injection of PEP into the ventricles of WT mice; parameters: species or system mouse; conditions: WT mice, 0.3, 3 and 30 μM injected into the ventricles, 1 and 5 days post injection
LC3 = LC3 protein in DaNs after PEP treatment; assay type: cell-based, human; conditions: PD cells
SNCA = SNCA gene expression timecourse of PEP treatment in DaNs; assay type: cell-based, human; conditions: 4 hours after PEP treatment
Method: as §3, §1

DaN cultures = assay type: cell-based, human; conditions: DaN cultures on drug treatment
From the text: as §2

PKC C1 domains = conditions: cited from earlier work
TH enzyme = TH enzyme amount in iPSC-derived DaNs treated with lysosomal agonists (western blot); assay type: cell-based, human; conditions: both control and PD DaNs, treated for 3 days
PC12 cell model = conditions: cited from earlier work
P53 = P53 level in DaN cultures under proteasome inhibition; assay type: cell-based, human; conditions: 24 hrs
From the text: (§4) […]. Western blot showing synuclein degradation under 24 hrs of MG132 proteosomal inhibitor (e). Western blot showing reduced LAMP1 protein in PD DaNs (f). […]. Data were normalized to 02iCTR for each differentiation and presented as a fold change (g). NIRF detection of oxidized dopamine from D30 DaN lysates (h)
(§5) Protein degradation can be largely divided into protosomal and autophagy/lysosomal degradation pathways.

α-Synuclein [7] = assay: α-Synuclein level in DaN cultures under proteasome inhibition; assay type: cell-based, human; conditions: 24 hrs
From the text: as §4, §5

[8] = time-course, control and PD DaNs

NC1=N[C@H](O)[C@H]2[C@H]3O[C@]4(O)O[C@@H]([C@@H](O)[C@@]2(N1)[C@@H]4O)[C@]3(O)CO [tetrodotoxin]
neuron activity (calcium imaging) (neurons in Brain-Chip): Neuron activity ablated

OC[C@H]1O[C@H](O[C@H]2O[C@H](CO)[C@@H](O)[C@H](O)[C@H]2O)[C@H](O)[C@@H](O)[C@@H]1O [Trehalose]
clearance of α-Synuclein (α-Synuclein [1]): promote clearance | amount of α-Synuclein protein (α-Synuclein [2]): not Trehalose significantly reduced | synuclein levels (α-Synuclein [2]): only the PKC agonist PEP005 substantially reduced synuclein levels

C/C=C(/C)C(=O)O[C@H]1C(C)=C[C@]23C(=O)[C@@H](C=C(CO)[C@@H](O)[C@]12O)[C@H]1[C@@H](C[C@H]3C)C1(C)C [PEP005, ingenol-3-angelate]
LAMP1 response (LAMP1): does not appear to be replicated | LAMP1 response (LAMP1; listed as PEP): neither LAMP1 nor LC3 respond | cleaved (active) caspase 3 (cleaved caspase 3 (CC3)): marked decrease; also recorded: decrease in the amount of active caspase 3 | proliferation [3]: inhibiting proliferation | TH gene expression (TH [4]): upregulated | apoptosis [5]: induces apoptosis | amount of α-Synuclein protein (α-Synuclein [2]): significantly reduced | synuclein levels (α-Synuclein [2]): substantially reduced | α-Synuclein levels (α-Synuclein [2]): reduced | α-Synuclein levels (α-Synuclein [2]; listed as PEP): reduced synuclein in all treated lines | time in which α-Synuclein is degraded in response to drug treatment (α-Synuclein [2]; [8]): ≤ 24 h | phosphorylation of PKCa (p-PKCa; 1 μM for 3 days, DaNs from all iPSC lines): clearly ablated | PKC alpha phosphorylation signal (p-PKCa; control and PD DaNs, at endpoint of 72 hours treatment): completely ablating this signal | time in which p-PKCa is degraded in response to drug treatment (p-PKCa; [8]): ≤ 24 h | synuclein in mouse striatum (synuclein): Reduction of synuclein | TH in mouse striatum (TH [6]): increase in TH | LC3 response (LC3): neither LAMP1 nor LC3 respond | SNCA gene expression (SNCA): downregulated | LDH (DaN cultures): nor do the Inventors see an increase in LDH | selectivity for individual PKC isoforms (PKC C1 domains): no selectivity | amount of TH enzyme (TH enzyme): increased amount of TH enzyme | amount of TH enzyme (TH enzyme; listed as PEP): increase in the amount of TH

C=CCNc1ncnc2ccc(Br)cc12 [SMER28]
Huntington and α-Synuclein aggregates (PC12 cell model): reduce | amount of α-Synuclein protein (α-Synuclein [2]): significantly reduced | synuclein levels (α-Synuclein [2]): only the PKC agonist PEP005 substantially reduced synuclein levels

CC(C)C[C@@H](C=O)NC(=O)[C@H](CC(C)C)NC(=O)[C@H](CC(C)C)NC(=O)OCc1ccccc1 [MG132] (Cbz-Leu-Leu-Leu-aldehyde)
P53 level (P53): accumulation of P53 | α-Synuclein levels (α-Synuclein [7]): no substantial change
